In patent publication US8987277B2, “Fungicide” (priority 2010, dated 2015):
Values after ≈ are worked out from the molar mass of the structure shown.

What was measured:
Botrytis spp = assay: Biocidal effect on spores of fungi that cause plant diseases and damage agricultural products; type: cell-based; settings: fungi spores (a mixture)
Experimental: (§1) Various fungi were used in the experiment—vegetative forms and spores of Alternaria alternata, Fusarium moniliforme, Botrytis spp. that cause diseases of plants and damage agricultural products. Biocidal properties were tested on spores of fungi cultures with optical density of the inoculated dose p E=0.310.

Trichophiton gypseum = assay: Assessment of the fungicide effect, serial dilutions in microplates with neutralizer; type: cell-based; settings: for Concentration that destroys the fungi (fungicide effect): trichophyton genus, exposure time 24 h
Experimental: (§2) Strains of fungi of Candida genus (Candida albicans strain 15) that are resistant towards disinfecting agents and trichophyton (Trichophiton gypseum), which were cultivated in Sabouraud's agar, were used as test microorganisms.
(§3) Forms A and B were dissolved in sterile distilled water.
(§4) The method of serial dilutions in microplates was used in the experiment. The dissolved substance was titrated in the culture medium, then the test microorganisms were introduced and after certain intervals of disinfection time the neutralizer was added, namely 0.1% solution of citric acid. After the exposure during 1-2 minutes the contents of each well were plated to solid culture media.
(§5) The following concentrations of the substance were studied: 0.1-0.05-0.025-0.0125% of the drug for action duration of 1, 3, 5, 10, 20, minutes and 1.0-1.5-3.0 and 24 h.
(§6) All inoculations were incubated at an optimum temperature during 24 hours.
(§7) The fungicide effect was assessed according to the presence or absence of growing microorganisms in the culture media.

[1] = tested on: Candida albicans strain 15; assay: as above; type: cell-based; settings: for Concentration that destroys the fungi (fungicide effect): Candida genus, exposure time 24 h
Experimental: as §2, §3, §4, §5, §6, §7

F. moniliforme = assay: Biocidal effect on spores of fungi that cause plant diseases and damage agricultural products; type: cell-based, Fusarium moniliforme; settings: fungi spores (a mixture)
Experimental: as §1

Aspergillis niger = assay: Biocidal effect on spores of fungi that damage paper, wood and dyes; type: cell-based; settings: fungi spores (a mixture)
Experimental: (§8) Various fungi were used in the experiment—vegetative forms and spores of Aspergillis niger, Penicillium ochro-chloron that damage paper, wood and dyes thereof.
(§9) Biocidal properties were tested on spores of fungi cultures with optical density of the inoculated dose p E=0.310.

[2] = tested on: Penicillium ochro-chloron; assay: as above; type: cell-based; settings: fungi spores (a mixture)
Experimental: as §8, §9

Aspergillus = assay: Minimum inhibiting concentration towards multicellular fungi; type: cell-based
From the text: (§10) Discovering the Minimum Inhibiting Concentration of the Inventive Agent Towards Multicellular Fungi

Mucor = assay: as above; type: cell-based
From the text: as §10

C. krusei = assay: Minimum inhibiting concentration towards unicellular fungi, serial dilution; type: cell-based; settings: Sabouraud's agar
Experimental: (§11) Discovering the Minimum Inhibiting Concentration of the Inventive Substance (Forms A and B) Towards Unicellular Fungi
(§12) Fungi were grown in Sabouraud's agar. The effect of the substance was assessed by means of the serial dilution method.

C. parapsilosis = assay: as above; type: cell-based; settings: Sabouraud's agar
Experimental: as §11, §12

C. glabrata = assay: as above; type: cell-based; settings: Sabouraud's agar
Experimental: as §11, §12

S. cerevisiae = assay: as above; type: cell-based; settings: Sabouraud's agar
Experimental: as §11, §12

C. albicans = assay: as above; type: cell-based; settings: Sabouraud's agar
Experimental: as §11, §12

A. alternata = assay: Biocidal effect on spores of fungi that cause plant diseases and damage agricultural products; type: cell-based, Alternaria alternata; settings: fungi spores (a mixture)
Experimental: as §1

[3] = read-out: Minimum inhibiting (biocidal) concentration (MIC) of the substance

2,4-dioxo-5-(2-hydroxy-3,5-dichlorobenzylidiene)amino-1,3-pyrimidine salt
Minimum inhibiting (biocidal) concentration of the substance (Botrytis spp): 8.0 µg/mL
Concentration that destroys the fungi (fungicide effect) (Trichophiton gypseum): 0.1%
Concentration that destroys the fungi (fungicide effect) [1]: 0.025%
Minimum inhibiting (biocidal) concentration of the substance (F. moniliforme): 8.0 µg/mL
Minimum inhibiting (biocidal) concentration (MIC) of the substance (Aspergillis niger): 2.0 µg/mL
Minimum inhibiting (biocidal) concentration (MIC) of the substance [2]: 8.0 µg/mL
Minimum inhibiting concentration (MIC) (Aspergillus): 2 µg/mL
Minimum inhibiting concentration (MIC) (Mucor): 1 µg/mL
Minimum inhibiting concentration (C. krusei): 1 µg/mL
Minimum inhibiting concentration (C. parapsilosis): 0.250 µg/mL
Minimum inhibiting concentration (C. glabrata): 0.125 µg/mL
Minimum inhibiting concentration (S. cerevisiae): 0.125 µg/mL
Minimum inhibiting concentration (C. albicans): 1 µg/mL
Minimum inhibiting (biocidal) concentration of the substance (A. alternata): 4.0 µg/mL

OC(Cn1cncn1)(Cn1cncn1)c1ccc(F)cc1F [Fluconazole, 2-(2,4-difluorophenyl)-1,3-bis(1N-1,2,4-triazol-1-yl)-2-propanol, reference compound]
Minimum inhibiting (biocidal) concentration of the substance (Botrytis spp): 64 µg/mL
Fungicide effect (presence or absence of growth) (Trichophiton gypseum; trichophyton, same conditions as the inventive substance): did not destroy the microbes
Fungicide effect (presence or absence of growth) ([1]; Candida, same conditions as the inventive substance): did not destroy the microbes
Minimum inhibiting (biocidal) concentration of the substance (F. moniliforme): 64 µg/mL
MIC (Aspergillis niger; [3]): 64 µg/mL (≈ 209 µM)
MIC [2, 3]: 64 µg/mL (≈ 209 µM)
MIC (Aspergillus): 64 µg/mL (≈ 209 µM)
MIC (Mucor): 64 µg/mL (≈ 209 µM)
MIC (C. krusei; Pichia kudriavzevii): 32 µg/mL (≈ 104 µM)
MIC (C. parapsilosis; Lodderomyces parapsilosis): 0.25 µg/mL (≈ 0.816 µM)
MIC (C. glabrata; Nakaseomyces glabratus): 64 µg/mL (≈ 209 µM)
MIC (S. cerevisiae; Saccharomyces cerevisiae): 0.125 µg/mL (≈ 0.408 µM)
MIC (C. albicans; Candida albicans): 2 µg/mL (≈ 6.53 µM)
Minimum inhibiting (biocidal) concentration of the substance (A. alternata): 32 µg/mL

Dimer of sodium salt of 2,4-dioxo-5-(2-hydroxy-3,5-dichlorobenzylidiene)amino-1,3-pyrimidine
Minimum inhibiting (biocidal) concentration of the substance (Botrytis spp): 4.0 µg/mL
Concentration that destroys the fungi (fungicide effect) (Trichophiton gypseum): 0.1%
Concentration that destroys the fungi (fungicide effect) [1]: 0.025%
Minimum inhibiting (biocidal) concentration of the substance (F. moniliforme): 4.0 µg/mL
Minimum inhibiting (biocidal) concentration (MIC) of the substance (Aspergillis niger): 1.0 µg/mL
Minimum inhibiting (biocidal) concentration (MIC) of the substance [2]: 4.0 µg/mL
Minimum inhibiting concentration (MIC) (Aspergillus): 2 µg/mL
Minimum inhibiting concentration (MIC) (Mucor): 1 µg/mL
Minimum inhibiting concentration (C. krusei): 1 µg/mL
Minimum inhibiting concentration (C. parapsilosis): 0.125 µg/mL
Minimum inhibiting concentration (C. glabrata): 0.250 µg/mL
Minimum inhibiting concentration (S. cerevisiae): 0.125 µg/mL
Minimum inhibiting concentration (C. albicans): 1 µg/mL
Minimum inhibiting (biocidal) concentration of the substance (A. alternata): 2.0 µg/mL
